Earlier results in patent US9820994B2, “Cerclage pessary containing progesterone of prolonged, sustained, and continuous release useful for prevention of preterm birth” (Laboratorios Andromaco S.A., priority 2014, dated 2017).

Test system: women at risk of preterm birth (short cervix / history of preterm birth)

CC(=O)[C@H]1CC[C@H]2[C@@H]3CCC4=CC(=O)CC[C@]4(C)[C@H]3CC[C@]12C [progesterone]
Reduction in rate of spontaneous preterm birth before 33-34 weeks (250 mg IM weekly, 200 mg daily vaginal suppositories, 90 mg vaginal gel): approximately 40% | Rate of births before 34 weeks (vaginal progesterone group, singleton, previous preterm birth, cervical length less than 25 mm (Alfirevic et al., 2013)): ~30% | Reduction of the rate of spontaneous preterm birth before 33-34 weeks (vaginally administered, patients with short cervix): 40-45%
